The source of these data is ChEMBL document CHEMBL5154644, “Design, Synthesis, and Structure-Activity Relationship Optimization of Pyrazolopyrimidine Amide Inhibitors of Phosphoinositide 3-Kinase γ (PI3Kγ)” (J Med Chem, 2022).

Data set [1] deals with T1, Phosphatidylinositol 4,5-bisphosphate 3-kinase catalytic subunit delta isoform (Homo sapiens, UniProt O00329).
T1 sequence (O00329 whole entry): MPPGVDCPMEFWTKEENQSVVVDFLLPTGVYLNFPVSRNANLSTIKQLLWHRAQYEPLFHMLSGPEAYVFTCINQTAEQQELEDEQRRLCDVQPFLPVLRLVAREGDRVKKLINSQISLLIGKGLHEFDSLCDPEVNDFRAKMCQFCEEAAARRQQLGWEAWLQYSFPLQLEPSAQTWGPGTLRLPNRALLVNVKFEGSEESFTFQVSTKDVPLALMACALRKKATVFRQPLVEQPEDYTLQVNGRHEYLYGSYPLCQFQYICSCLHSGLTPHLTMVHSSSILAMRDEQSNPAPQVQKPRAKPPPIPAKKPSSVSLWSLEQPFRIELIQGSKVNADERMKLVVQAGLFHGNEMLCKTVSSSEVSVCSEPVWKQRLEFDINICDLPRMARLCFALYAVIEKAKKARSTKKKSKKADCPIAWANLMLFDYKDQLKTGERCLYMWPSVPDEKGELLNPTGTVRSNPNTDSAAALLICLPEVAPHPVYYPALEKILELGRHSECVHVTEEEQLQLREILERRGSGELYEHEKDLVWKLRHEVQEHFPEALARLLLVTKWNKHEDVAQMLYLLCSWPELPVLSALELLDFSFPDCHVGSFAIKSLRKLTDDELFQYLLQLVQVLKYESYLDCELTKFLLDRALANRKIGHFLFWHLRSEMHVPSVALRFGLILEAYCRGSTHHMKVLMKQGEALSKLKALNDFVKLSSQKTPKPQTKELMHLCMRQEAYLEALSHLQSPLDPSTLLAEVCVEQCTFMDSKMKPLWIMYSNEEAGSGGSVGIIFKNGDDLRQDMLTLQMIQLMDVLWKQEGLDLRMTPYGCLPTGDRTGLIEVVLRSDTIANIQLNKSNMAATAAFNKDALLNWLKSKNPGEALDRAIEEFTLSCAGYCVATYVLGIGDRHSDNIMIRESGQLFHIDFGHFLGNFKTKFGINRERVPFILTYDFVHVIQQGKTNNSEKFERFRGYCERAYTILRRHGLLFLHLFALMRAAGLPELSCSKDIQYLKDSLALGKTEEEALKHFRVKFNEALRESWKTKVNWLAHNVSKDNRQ
As to the kind of experiment: Inhibition of PI3Kdelta (unknown origin) using PIP2 as substrate preincubated for 1 hr followed by substrate addition and measured after 60 mins in presence of ATP by ADP-glo assay.

Data set [2] concerns the target T2, Phosphatidylinositol 4,5-bisphosphate 3-kinase catalytic subunit gamma isoform (Homo sapiens, UniProt P48736). As to the kind of experiment: Inhibition of PI3Kgamma (unknown origin) using PIP2 as substrate preincubated for 1 hr followed by substrate addition and measured after 60 mins in presence of ATP by ADP-glo assay.
The target of data set [3] is Phosphatidylinositol 4,5-bisphosphate 3-kinase catalytic subunit alpha isoform (Homo sapiens, UniProt P42336). The data set is described as follows: Inhibition of PI3Kalpha (unknown origin) using PIP2 as substrate preincubated for 1 hr followed by substrate addition and measured after 60 mins in presence of ATP by ADP-glo assay.
Data set [4] has as its target T2, Phosphatidylinositol 4,5-bisphosphate 3-kinase catalytic subunit gamma isoform. As to the kind of experiment: Inhibition of PI3Kgamma (unknown origin) in […] stimulated human THP-1 cells assessed as reduction in Akt phosphorylation level at Ser473 residue preincubated for 60 mins followed by rhMCP-1 stimulation and measured after 2 mins by AlphaLisa assay. The format is cell-based.

Data set [5] is filed under the species Homo sapiens. As to the kind of experiment: Selectivity ratio of IC50 for inhibition of PI3Kalpha (unknown origin) to IC50 for inhibition of PI3Kgamma (unknown origin).
Data set [6] in a line: Hepatic clearance in Sprague-Dawley rat by LC-MS/MS analysis. As to conditions: in vivo. Type of data set: ADME.
For data set [7], the species on record is Homo sapiens. The data set is described as follows: Selectivity ratio of IC50 for inhibition of PI3Kdelta (unknown origin) to IC50 for inhibition of PI3Kgamma (unknown origin).
Data set [8] is described as follows: Metabolic stability in human hepatocytes assessed as intrinsic clearance per 10^6 cells at 0.5 uM by LC-MS/MS analysis. Type of data set: ADME, cell-based, Hepatocyte. Particulars: read-out: CLH.
For data set [9], the target named is CYP3A4 (Homo sapiens, UniProt P08684). As to the kind of experiment: in vitro. As to conditions: human liver microsomes, probe midazolam.
Description: Time dependent inhibition of CYP3A4 in human liver microsomes at 10 uM using midazolam as substrate preincubated for 30 mins in presence of NADPH by LC/MS/MS analysis relative to control
A short description of data set [10]: Metabolic stability in rat hepatocyte assessed as intrinsic clearance per 10^8 cells at 0.5 uM by LC-MS/MS analysis. The format is ADME, cell-based. As to conditions: hepatocytes.

T2 sequence (P48736 whole entry, canonical isoform): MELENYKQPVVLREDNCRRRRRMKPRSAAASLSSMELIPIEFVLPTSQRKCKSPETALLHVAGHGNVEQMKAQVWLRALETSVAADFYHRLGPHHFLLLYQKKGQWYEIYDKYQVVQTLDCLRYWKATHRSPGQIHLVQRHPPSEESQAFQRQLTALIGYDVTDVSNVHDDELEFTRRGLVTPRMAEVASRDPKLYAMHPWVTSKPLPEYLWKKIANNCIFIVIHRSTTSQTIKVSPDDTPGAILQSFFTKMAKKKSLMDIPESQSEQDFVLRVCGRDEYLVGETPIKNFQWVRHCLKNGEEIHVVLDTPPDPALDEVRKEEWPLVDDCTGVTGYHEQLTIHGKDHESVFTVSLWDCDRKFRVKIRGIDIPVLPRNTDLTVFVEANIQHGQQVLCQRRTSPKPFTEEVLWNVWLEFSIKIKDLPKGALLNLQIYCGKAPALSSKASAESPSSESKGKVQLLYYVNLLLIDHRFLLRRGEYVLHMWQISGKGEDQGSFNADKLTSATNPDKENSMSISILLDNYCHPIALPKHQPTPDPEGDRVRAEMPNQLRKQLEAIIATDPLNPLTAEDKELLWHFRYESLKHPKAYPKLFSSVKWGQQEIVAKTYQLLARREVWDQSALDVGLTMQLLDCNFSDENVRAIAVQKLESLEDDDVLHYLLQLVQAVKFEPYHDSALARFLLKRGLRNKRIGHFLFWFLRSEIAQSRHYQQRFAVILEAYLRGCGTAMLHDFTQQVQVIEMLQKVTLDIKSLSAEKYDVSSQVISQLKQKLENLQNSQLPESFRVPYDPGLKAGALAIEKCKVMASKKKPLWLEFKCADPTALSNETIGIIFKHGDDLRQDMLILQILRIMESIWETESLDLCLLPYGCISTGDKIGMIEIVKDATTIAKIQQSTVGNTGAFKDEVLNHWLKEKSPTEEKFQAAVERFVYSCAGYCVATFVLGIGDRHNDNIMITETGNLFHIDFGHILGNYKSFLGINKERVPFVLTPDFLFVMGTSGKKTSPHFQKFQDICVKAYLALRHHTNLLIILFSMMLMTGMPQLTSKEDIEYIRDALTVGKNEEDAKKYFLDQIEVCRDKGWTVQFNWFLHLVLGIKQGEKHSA
Chain of CYP3A4 (P08684 whole entry): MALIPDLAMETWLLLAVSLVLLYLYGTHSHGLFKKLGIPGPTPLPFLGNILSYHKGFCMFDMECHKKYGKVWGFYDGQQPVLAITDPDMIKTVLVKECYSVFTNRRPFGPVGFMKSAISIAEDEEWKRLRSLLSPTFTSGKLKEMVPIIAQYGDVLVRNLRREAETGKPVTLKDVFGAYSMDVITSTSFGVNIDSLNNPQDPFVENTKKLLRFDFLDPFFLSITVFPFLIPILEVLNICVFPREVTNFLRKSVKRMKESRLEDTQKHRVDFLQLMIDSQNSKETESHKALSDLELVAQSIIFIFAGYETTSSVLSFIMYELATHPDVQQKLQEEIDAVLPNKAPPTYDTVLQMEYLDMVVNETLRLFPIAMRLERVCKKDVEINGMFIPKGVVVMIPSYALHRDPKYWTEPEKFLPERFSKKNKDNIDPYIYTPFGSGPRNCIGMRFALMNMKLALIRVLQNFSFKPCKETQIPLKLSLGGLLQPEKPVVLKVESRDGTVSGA
Chain of Phosphatidylinositol 4,5-bisphosphate 3-kinase catalytic subunit alpha isoform (P42336 whole entry, canonical isoform): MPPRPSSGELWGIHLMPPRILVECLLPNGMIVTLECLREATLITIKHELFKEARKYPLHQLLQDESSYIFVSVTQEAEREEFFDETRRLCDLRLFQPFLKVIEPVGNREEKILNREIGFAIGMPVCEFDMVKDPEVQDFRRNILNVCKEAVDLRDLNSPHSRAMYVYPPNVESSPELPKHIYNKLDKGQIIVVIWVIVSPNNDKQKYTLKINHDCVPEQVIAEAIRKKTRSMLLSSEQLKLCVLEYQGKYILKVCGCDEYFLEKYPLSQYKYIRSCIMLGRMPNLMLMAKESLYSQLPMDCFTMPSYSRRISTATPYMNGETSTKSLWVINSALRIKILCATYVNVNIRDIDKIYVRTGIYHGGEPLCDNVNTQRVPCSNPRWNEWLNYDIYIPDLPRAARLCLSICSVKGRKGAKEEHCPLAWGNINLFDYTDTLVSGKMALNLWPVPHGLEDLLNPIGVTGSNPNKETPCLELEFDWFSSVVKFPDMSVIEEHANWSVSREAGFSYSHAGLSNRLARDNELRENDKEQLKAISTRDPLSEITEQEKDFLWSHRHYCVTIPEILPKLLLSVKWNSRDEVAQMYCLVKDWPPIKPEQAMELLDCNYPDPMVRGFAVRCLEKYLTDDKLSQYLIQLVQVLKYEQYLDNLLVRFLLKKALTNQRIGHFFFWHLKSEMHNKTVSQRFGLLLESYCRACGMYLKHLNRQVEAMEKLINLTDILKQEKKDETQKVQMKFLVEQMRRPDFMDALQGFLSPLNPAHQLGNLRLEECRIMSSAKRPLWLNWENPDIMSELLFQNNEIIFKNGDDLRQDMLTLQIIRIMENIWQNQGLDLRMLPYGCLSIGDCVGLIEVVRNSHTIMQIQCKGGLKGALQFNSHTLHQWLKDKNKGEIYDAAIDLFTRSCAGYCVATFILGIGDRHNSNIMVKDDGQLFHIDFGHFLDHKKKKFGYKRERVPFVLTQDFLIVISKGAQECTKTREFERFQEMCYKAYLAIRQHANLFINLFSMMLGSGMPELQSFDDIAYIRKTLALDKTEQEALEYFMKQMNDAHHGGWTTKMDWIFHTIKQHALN

As to `C[C@@H](C1CC1)N1Cc2cc(-c3ccn4nc(N)c(C(=O)NC5CC5)c4n3)cc(S(C)(=O)=O)c2C1=O`, the IC50 in data set [1] was 560 nM; in data set [2], 2.4 nM; in data set [3], 351 nM; in [4], 43 nM. In addition, the Ratio IC50 is 148 in data set [5] and 236 in data set [7]. The compound further showed a CLH in [6] of 88.3 mL/min/kg. In [8], the hepatocyte CLint at 0.5 µM is less than 1.2 µL/min/1e6 cells. Besides, in data set [9], the inhibition at 30 min, 10 µM turned out to be 4%. Moreover, the hepatocyte intrinsic clearance in data set [10] was less than 1.2 µL/min.
Turning to `Cc1cc(-c2ccn3nc(N)c(C(=O)NC4COC4)c3n2)cc2c1C(=O)N([C@@H](C)C1CC1)C2`, the concentration for half-maximal inhibition (IC50) in data set [1] came to 698 nM; in data set [2], 1.8 nM; in data set [3], 833 nM; in [4], 156 nM. The Ratio IC50 in data set [5] amounted to 464; in [7], 388. For the same compound, the CLH in [6] came out at 33 mL/min/kg. Besides, the hepatocyte CLint at 0.5 µM in data set [8] amounted to 6.21 µL/min/1e6 cells. Also, in [9], the inhibition at 30 min, 10 µM is 12%. Besides, in data set [10], the hepatocyte intrinsic clearance came out at 4.59 µL/min.
With `Cc1cc(-c2ccn3nc(N)c(C(=O)N[C@H]4CNC(=O)C4)c3n2)cc2c1C(=O)N([C@@H](C)C1CC1)C2`, the IC50 worked out at 769 nM in [1], 1.8 nM in data set [2], 995 nM in data set [3] and 110 nM in data set [4]. The Ratio IC50 in [5] turned out to be 568; in [7], 439. Further, in data set [6], the CLH came to 73.3 mL/min/kg. Besides, in [8], the hepatocyte CLint at 0.5 µM is less than 1.2 µL/min/1e6 cells. Besides, the inhibition at 30 min, 10 µM in data set [9] was 4%. Further, the hepatocyte intrinsic clearance in data set [10] was 2.73 µL/min.
`Cc1cc(-c2ccn3nc(N)c(C(=O)NC4CC4)c3n2)cc2c1C(=O)N([C@@H](C)C1CC1)C2`: the half-inhibitory concentration (IC50) in [1] was determined as 1670 nM; in data set [2], 3.6 nM; in [3], 3300 nM; in data set [4], 212 nM. The Ratio IC50 came to 904 in data set [5] and 460 in data set [7]. Moreover, the CLH in data set [6] was determined as 6.7 mL/min/kg. The hepatocyte CLint at 0.5 µM in data set [8] was 8.92 µL/min/1e6 cells. The inhibition at 30 min, 10 µM in data set [9] worked out at 27%. The hepatocyte intrinsic clearance in data set [10] worked out at 1.5 µL/min.
On to `Cc1cc(-c2ccn3nc(N)c(C(=O)N[C@@H]4CC[C@@H](O)C4)c3n2)cc2c1C(=O)N([C@@H](C)C1CC1)C2`, for which the IC50 in data set [1] is 123 nM; in [2], 4.2 nM; in data set [3], 140 nM; in data set [4] it was 82 nM. The Ratio IC50 in data set [5] was 33; in [7], 29. The compound further yielded a CLH in data set [6] of 71.7 mL/min/kg. Further, in data set [8], the hepatocyte CLint at 0.5 µM was found to be 3.26 µL/min/1e6 cells. For the same compound, the inhibition at 30 min, 10 µM in data set [9] worked out at 14%. The hepatocyte intrinsic clearance in data set [10] stood at 24.6 µL/min.
Take `CCS(=O)(=O)c1cc(-c2ccn3nc(N)c(C(=O)NC4CC4)c3n2)cc2c1C(=O)N([C@@H](C)C1CC1)C2`: the concentration for half-maximal inhibition (IC50) in data set [1] came out at 835 nM; in [2] it was 4.8 nM; in data set [3], 808 nM; in data set [4] it was 67 nM. Further, the Ratio IC50 in data set [5] was determined as 170; in data set [7], 175. Also, in data set [6], the CLH is 68.3 mL/min/kg. Also, the hepatocyte CLint at 0.5 µM in data set [8] is 2.03 µL/min/1e6 cells. For the same compound, the inhibition at 30 min, 10 µM in [9] came out at 16%. Also, the hepatocyte intrinsic clearance in data set [10] is less than 1.2 µL/min.
With `C[C@@H](C1CC1)N1Cc2cc(-c3ccn4nc(N)c(C(=O)NC5CC5)c4n3)cc(OC(F)(F)F)c2C1=O`, the 50% inhibitory concentration (IC50) is 1860 nM in data set [1], 3.6 nM in [2], 1480 nM in data set [3] and 58 nM in data set [4]. The Ratio IC50 was 411 in data set [5] and 518 in data set [7]. Also, the CLH in [6] is 8.3 mL/min/kg. Further, the hepatocyte CLint at 0.5 µM in data set [8] came to 1.67 µL/min/1e6 cells. This compound showed an inhibition at 30 min, 10 µM in data set [9] of 20%. Also, the hepatocyte intrinsic clearance in data set [10] is less than 1.2 µL/min.
As for `Cc1cc(-c2ccn3nc(N)c(C(=O)N[C@H](C)CO)c3n2)cc2c1C(=O)N([C@@H](C)C1CC1)C2`, the 50% inhibitory concentration (IC50) in data set [1] was 1280 nM; in [2], 3.5 nM; in [3], 713 nM; in data set [4], 186 nM. In addition, the Ratio IC50 in data set [5] stood at 205; in data set [7], 415. Further, in data set [6], the CLH amounted to 15 mL/min/kg. The hepatocyte CLint at 0.5 µM in data set [8] was 1.31 µL/min/1e6 cells. For the same compound, the inhibition at 30 min, 10 µM in [9] was determined as 19%. For the same compound, the hepatocyte intrinsic clearance in data set [10] was less than 1.2 µL/min.
With `C[C@@H](C1CC1)N1Cc2cc(-c3ccn4nc(N)c(C(=O)NC5CC5)c4n3)cc(S(=O)(=O)C3CC3)c2C1=O`, the concentration for half-maximal inhibition (IC50) in data set [1] stood at 172 nM; in data set [2] it was 1.7 nM; in data set [3], 384 nM; in [4], 56 nM. Also, the Ratio IC50 in [5] was 223; in data set [7] it was 100. In [6], the CLH was 41.7 mL/min/kg. The hepatocyte CLint at 0.5 µM in data set [8] was found to be 1.99 µL/min/1e6 cells. Besides, the inhibition at 30 min, 10 µM in data set [9] turned out to be 23%. Also, the hepatocyte intrinsic clearance in [10] is less than 1.2 µL/min.
In the case of `Cc1cc(-c2ccn3nc(N)c(C(=O)N[C@@H](CO)C4CC4)c3n2)cc2c1C(=O)N([C@@H](C)C1CC1)C2`, the IC50 in [1] is more than 10000 nM; in data set [2], 2.9 nM; in data set [3] it was more than 10000 nM; in [4], 133 nM. Besides, the Ratio IC50 in [5] and in data set [7] was more than 3440 in each case. The compound also returned a CLH in data set [6] of 8.3 mL/min/kg. In addition, the hepatocyte CLint at 0.5 µM in data set [8] was 2.03 µL/min/1e6 cells. This compound also gave an inhibition at 30 min, 10 µM in [9] of 7%. Further, the hepatocyte intrinsic clearance in data set [10] is 1.31 µL/min.
With `Cc1cc(-c2ccn3nc(N)c(C(=O)NC4CCC4)c3n2)cc2c1C(=O)N([C@@H](C)C1CC1)C2`, the IC50 in data set [1] turned out to be 1590 nM; in data set [2], 2.3 nM; in data set [3], 3660 nM; in data set [4], 292 nM. Also, the Ratio IC50 in [5] is 1580; in data set [7] it was 668. Besides, the CLH in data set [6] worked out at 76.7 mL/min/kg. In data set [8], the hepatocyte CLint at 0.5 µM is 29.3 µL/min/1e6 cells. This compound also came in with an inhibition at 30 min, 10 µM in [9] of 46%. In data set [10], the hepatocyte intrinsic clearance is 82.7 µL/min.
Take `Cc1cc(-c2ccn3nc(N)c(C(=O)N[C@H]4CC[C@H](O)CC4)c3n2)cc2c1C(=O)N([C@@H](C)C1CC1)C2`: the IC50 is 61 nM in [1], 1.2 nM in data set [2], 188 nM in data set [3] and 106 nM in data set [4]. Also, the Ratio IC50 in data set [5] is 156; in data set [7], 51. This compound also had a CLH in data set [6] of 50 mL/min/kg. Also, the hepatocyte CLint at 0.5 µM in data set [8] worked out at 4.76 µL/min/1e6 cells. This compound gave an inhibition at 30 min, 10 µM in data set [9] of 26%. The hepatocyte intrinsic clearance in data set [10] was 10.8 µL/min.
Regarding `CNS(=O)(=O)c1cc(-c2ccn3nc(N)c(C(=O)NC4CC4)c3n2)cc2c1C(=O)N([C@@H](C)C1CC1)C2`, the IC50 in data set [1] came to 256 nM; in data set [2], 2.7 nM; in data set [3] it was 519 nM; in [4] it was 36 nM. For the same compound, in [6], the CLH is 35 mL/min/kg. Moreover, the Ratio IC50 in data set [7] was 96. In addition, the hepatocyte CLint at 0.5 µM in data set [8] was determined as 4.46 µL/min/1e6 cells. This compound had an inhibition at 30 min, 10 µM in data set [9] of 34%. Also, the hepatocyte intrinsic clearance in data set [10] is 4.91 µL/min.
